Laboratory results published in ChEMBL document CHEMBL5724914, “Linking interpersonal differences in gut microbiota composition and drug biotransformation activity” (2024).

Test: (§1) The drug is tested on WLS-038 corresponding to human gut metagenome with ENA study accession number: PRJEB37062 and ENA sample accession number: ERS12561745 for biotransformation under anaerobic condition. The drug concentrations were measured over 9 timepoints collected between 0 and 24 hours of incubation by liquid-chromatography-coupled mass spectrometry (LC–MS)
Conditions: 2 µM
Further: call rule not given here.

| Bacterial Biotransformation | Compound |
| --- | --- |
| Compound metabolized | OC(c1cc(C(F)(F)F)nc2c(C(F)(F)F)cccc12)C1CCCCN1 (stereo not given) [MEFLOQUINE] |
| Compound metabolized | CC(=O)O[C@]1(C(C)=O)CC[C@H]2[C@@H]3C=C(C)C4=CC(=O)CC[C@]4(C)[C@H]3CC[C@@]21C [MEGESTROL ACETATE] |

Test: as §1, with “Z-012” for “WLS-038”, “to” for “to human gut”, “ERS12561812” for “ERS12561745”
Conditions: 2 µM

| Bacterial Biotransformation | Compound |
| --- | --- |
| Compound NOT metabolized | OC(c1cc(C(F)(F)F)nc2c(C(F)(F)F)cccc12)C1CCCCN1 (stereo not given) [MEFLOQUINE] |
| Compound metabolized | CC(=O)O[C@]1(C(C)=O)CC[C@H]2[C@@H]3C=C(C)C4=CC(=O)CC[C@]4(C)[C@H]3CC[C@@]21C [MEGESTROL ACETATE] |

Conditions: human gut metagenome, 24 h, 2 µM

| Bacterial Biotransformation | Compound |
| --- | --- |
| Compound metabolized | OC(c1cc(C(F)(F)F)nc2c(C(F)(F)F)cccc12)C1CCCCN1 (stereo not given) [MEFLOQUINE] |
| Compound metabolized | CC(=O)O[C@]1(C(C)=O)CC[C@H]2[C@@H]3C=C(C)C4=CC(=O)CC[C@]4(C)[C@H]3CC[C@@]21C [MEGESTROL ACETATE] |

Conditions: human gut metagenome, 24 h, 2 µM
Remark: another data set of the same source

| Bacterial Biotransformation | Compound |
| --- | --- |
| Compound NOT metabolized | OC(c1cc(C(F)(F)F)nc2c(C(F)(F)F)cccc12)C1CCCCN1 (stereo not given) [MEFLOQUINE] |
| Compound metabolized | CC(=O)O[C@]1(C(C)=O)CC[C@H]2[C@@H]3C=C(C)C4=CC(=O)CC[C@]4(C)[C@H]3CC[C@@]21C [MEGESTROL ACETATE] |

Conditions: human gut metagenome, 24 h, 2 µM
Remark: another data set of the same source

| Bacterial Biotransformation | Compound |
| --- | --- |
| Compound metabolized | OC(c1cc(C(F)(F)F)nc2c(C(F)(F)F)cccc12)C1CCCCN1 (stereo not given) [MEFLOQUINE] |
| Compound metabolized | CC(=O)O[C@]1(C(C)=O)CC[C@H]2[C@@H]3C=C(C)C4=CC(=O)CC[C@]4(C)[C@H]3CC[C@@]21C [MEGESTROL ACETATE] |

Test: as §1, with “Z-024” for “WLS-038”, “pig” for “human”, “ERS12561823” for “ERS12561745”
Conditions: 2 µM

| Bacterial Biotransformation | Compound |
| --- | --- |
| Compound metabolized | OC(c1cc(C(F)(F)F)nc2c(C(F)(F)F)cccc12)C1CCCCN1 (stereo not given) [MEFLOQUINE] |
| Compound NOT metabolized | CC(=O)O[C@]1(C(C)=O)CC[C@H]2[C@@H]3C=C(C)C4=CC(=O)CC[C@]4(C)[C@H]3CC[C@@]21C [MEGESTROL ACETATE] |

Test: as §1, with “WLS-069” for “WLS-038”, “ERS12561748” for “ERS12561745”
Conditions: 2 µM

| Bacterial Biotransformation | Compound |
| --- | --- |
| Compound metabolized | OC(c1cc(C(F)(F)F)nc2c(C(F)(F)F)cccc12)C1CCCCN1 (stereo not given) [MEFLOQUINE] |
| Compound metabolized | CC(=O)O[C@]1(C(C)=O)CC[C@H]2[C@@H]3C=C(C)C4=CC(=O)CC[C@]4(C)[C@H]3CC[C@@]21C [MEGESTROL ACETATE] |

Test: as §1, with “Z-002” for “WLS-038”, “rabbit” for “human”, “ERS12561802” for “ERS12561745”
Conditions: 2 µM

| Bacterial Biotransformation | Compound |
| --- | --- |
| Compound metabolized | OC(c1cc(C(F)(F)F)nc2c(C(F)(F)F)cccc12)C1CCCCN1 (stereo not given) [MEFLOQUINE] |
| Compound metabolized | CC(=O)O[C@]1(C(C)=O)CC[C@H]2[C@@H]3C=C(C)C4=CC(=O)CC[C@]4(C)[C@H]3CC[C@@]21C [MEGESTROL ACETATE] |

Conditions: human gut metagenome, 24 h, 2 µM
Remark: another data set of the same source

| Bacterial Biotransformation | Compound |
| --- | --- |
| Compound NOT metabolized | OC(c1cc(C(F)(F)F)nc2c(C(F)(F)F)cccc12)C1CCCCN1 (stereo not given) [MEFLOQUINE] |
| Compound metabolized | CC(=O)O[C@]1(C(C)=O)CC[C@H]2[C@@H]3C=C(C)C4=CC(=O)CC[C@]4(C)[C@H]3CC[C@@]21C [MEGESTROL ACETATE] |

Conditions: human gut metagenome, 24 h, 2 µM
Remark: another data set of the same source

| Bacterial Biotransformation | Compound |
| --- | --- |
| Compound metabolized | OC(c1cc(C(F)(F)F)nc2c(C(F)(F)F)cccc12)C1CCCCN1 (stereo not given) [MEFLOQUINE] |
| Compound metabolized | CC(=O)O[C@]1(C(C)=O)CC[C@H]2[C@@H]3C=C(C)C4=CC(=O)CC[C@]4(C)[C@H]3CC[C@@]21C [MEGESTROL ACETATE] |

Test: as §1, with “Z-016” for “WLS-038”, “mouse” for “human”, “ERS12561815” for “ERS12561745”
Conditions: 2 µM

| Bacterial Biotransformation | Compound |
| --- | --- |
| Compound NOT metabolized | OC(c1cc(C(F)(F)F)nc2c(C(F)(F)F)cccc12)C1CCCCN1 (stereo not given) [MEFLOQUINE] |
| Compound metabolized | CC(=O)O[C@]1(C(C)=O)CC[C@H]2[C@@H]3C=C(C)C4=CC(=O)CC[C@]4(C)[C@H]3CC[C@@]21C [MEGESTROL ACETATE] |

Conditions: human gut metagenome, 24 h, 2 µM
Remark: another data set of the same source

| Bacterial Biotransformation | Compound |
| --- | --- |
| Compound NOT metabolized | OC(c1cc(C(F)(F)F)nc2c(C(F)(F)F)cccc12)C1CCCCN1 (stereo not given) [MEFLOQUINE] |
| Compound metabolized | CC(=O)O[C@]1(C(C)=O)CC[C@H]2[C@@H]3C=C(C)C4=CC(=O)CC[C@]4(C)[C@H]3CC[C@@]21C [MEGESTROL ACETATE] |

Conditions: human gut metagenome, 24 h, 2 µM
Remark: another data set of the same source

| Bacterial Biotransformation | Compound |
| --- | --- |
| Compound metabolized | OC(c1cc(C(F)(F)F)nc2c(C(F)(F)F)cccc12)C1CCCCN1 (stereo not given) [MEFLOQUINE] |
| Compound metabolized | CC(=O)O[C@]1(C(C)=O)CC[C@H]2[C@@H]3C=C(C)C4=CC(=O)CC[C@]4(C)[C@H]3CC[C@@]21C [MEGESTROL ACETATE] |

Test: as §1, with “Z-029” for “WLS-038”, “rat” for “human”, “ERS12561828” for “ERS12561745”
Conditions: 2 µM

| Bacterial Biotransformation | Compound |
| --- | --- |
| Compound metabolized | OC(c1cc(C(F)(F)F)nc2c(C(F)(F)F)cccc12)C1CCCCN1 (stereo not given) [MEFLOQUINE] |
| Compound NOT metabolized | CC(=O)O[C@]1(C(C)=O)CC[C@H]2[C@@H]3C=C(C)C4=CC(=O)CC[C@]4(C)[C@H]3CC[C@@]21C [MEGESTROL ACETATE] |

Test: as §1, with “WLS-240” for “WLS-038”, “ERS12561773” for “ERS12561745”
Conditions: 2 µM

| Bacterial Biotransformation | Compound |
| --- | --- |
| Compound metabolized | OC(c1cc(C(F)(F)F)nc2c(C(F)(F)F)cccc12)C1CCCCN1 (stereo not given) [MEFLOQUINE] |
| Compound metabolized | CC(=O)O[C@]1(C(C)=O)CC[C@H]2[C@@H]3C=C(C)C4=CC(=O)CC[C@]4(C)[C@H]3CC[C@@]21C [MEGESTROL ACETATE] |

Test: as §1, with “WLS-098” for “WLS-038”, “ERS12561754” for “ERS12561745”
Conditions: 2 µM

| Bacterial Biotransformation | Compound |
| --- | --- |
| Compound NOT metabolized | OC(c1cc(C(F)(F)F)nc2c(C(F)(F)F)cccc12)C1CCCCN1 (stereo not given) [MEFLOQUINE] |
| Compound metabolized | CC(=O)O[C@]1(C(C)=O)CC[C@H]2[C@@H]3C=C(C)C4=CC(=O)CC[C@]4(C)[C@H]3CC[C@@]21C [MEGESTROL ACETATE] |

Conditions: human gut metagenome, 24 h, 2 µM
Remark: another data set of the same source

| Bacterial Biotransformation | Compound |
| --- | --- |
| Compound metabolized | OC(c1cc(C(F)(F)F)nc2c(C(F)(F)F)cccc12)C1CCCCN1 (stereo not given) [MEFLOQUINE] |
| Compound metabolized | CC(=O)O[C@]1(C(C)=O)CC[C@H]2[C@@H]3C=C(C)C4=CC(=O)CC[C@]4(C)[C@H]3CC[C@@]21C [MEGESTROL ACETATE] |

Test: as §1, with “Z-027” for “WLS-038”, “to” for “to human gut”, “ERS12561826” for “ERS12561745”
Conditions: 2 µM

| Bacterial Biotransformation | Compound |
| --- | --- |
| Compound NOT metabolized | OC(c1cc(C(F)(F)F)nc2c(C(F)(F)F)cccc12)C1CCCCN1 (stereo not given) [MEFLOQUINE] |
| Compound metabolized | CC(=O)O[C@]1(C(C)=O)CC[C@H]2[C@@H]3C=C(C)C4=CC(=O)CC[C@]4(C)[C@H]3CC[C@@]21C [MEGESTROL ACETATE] |

Conditions: human gut metagenome, 24 h, 2 µM
Remark: another data set of the same source

| Bacterial Biotransformation | Compound |
| --- | --- |
| Compound metabolized | OC(c1cc(C(F)(F)F)nc2c(C(F)(F)F)cccc12)C1CCCCN1 (stereo not given) [MEFLOQUINE] |
| Compound metabolized | CC(=O)O[C@]1(C(C)=O)CC[C@H]2[C@@H]3C=C(C)C4=CC(=O)CC[C@]4(C)[C@H]3CC[C@@]21C [MEGESTROL ACETATE] |

Test: as §1, with “Z-011” for “WLS-038”, “mouse” for “human”, “ERS12561811” for “ERS12561745”
Conditions: 2 µM

| Bacterial Biotransformation | Compound |
| --- | --- |
| Compound metabolized | OC(c1cc(C(F)(F)F)nc2c(C(F)(F)F)cccc12)C1CCCCN1 (stereo not given) [MEFLOQUINE] |
| Compound metabolized | CC(=O)O[C@]1(C(C)=O)CC[C@H]2[C@@H]3C=C(C)C4=CC(=O)CC[C@]4(C)[C@H]3CC[C@@]21C [MEGESTROL ACETATE] |
